Source: PubChem BioAssay AID2060912 (Molecular Pharmacology Branch, DTP, NCI, 2025)
pIC50: −log10 of the molar value.

Tested on: HUVEC/MSC spheroids viability
Test: Human HUVEC/MSC cell line growth inhibition [KRAS2];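 on viability, T/C: percent of DMSO vehicle control luminescence so 100% = untreated viability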
Details: for pIC50: curve of first compound; for viability, T/C: stronger effect = lower value; active means viability on the fitted dose curve at most 10% of control; inactive means the rest
How it was run: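 Stroma-only multicellular spheroids, formed from HUVEC and human MSCs at passages </=5, received RAS-pathway inhibitors with or without a second targeted drug. Dosing followed half-log dilutions from clinically achievable levels.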

[1] = second compound 0.00949 µM, first compound 0.0316 µM
[2] = second compound 0.00949 µM, first compound 0.1 µM
[3] = second compound 0.00949 µM, first compound 0.316 µM
[4] = second compound 0.00949 µM, first compound 1 µM
[5] = second compound 0.03 µM, first compound 0.0316 µM
[6] = second compound 0.03 µM, first compound 0.1 µM
[7] = second compound 0.03 µM, first compound 0.316 µM
[8] = second compound 0.03 µM, first compound 1 µM
[9] = second compound 0.0949 µM, first compound 0.0316 µM
[10] = second compound 0.0949 µM, first compound 0.1 µM
[11] = second compound 0.0949 µM, first compound 0.316 µM
[12] = second compound 0.0949 µM, first compound 1 µM
[13] = second compound 0.3 µM, first compound 0.0316 µM
[14] = second compound 0.3 µM, first compound 0.1 µM
[15] = second compound 0.3 µM, first compound 0.316 µM
[16] = second compound 0.3 µM, first compound 1 µM
[17] = second compound 0.949 µM, first compound 0.0316 µM
[18] = second compound 0.949 µM, first compound 0.1 µM
[19] = second compound 0.949 µM, first compound 0.316 µM
[20] = second compound 0.949 µM, first compound 1 µM
[21] = second compound 3 µM, first compound 0.0316 µM
[22] = second compound 3 µM, first compound 0.1 µM
[23] = second compound 3 µM, first compound 0.316 µM
[24] = second compound 3 µM, first compound 1 µM
[25] = second compound 0.00949 µM, first compound 0.00316 µM
[26] = second compound 0.00949 µM, first compound 0.01 µM
[27] = second compound 0.03 µM, first compound 0.00316 µM
[28] = second compound 0.03 µM, first compound 0.01 µM
[29] = second compound 0.0949 µM, first compound 0.00316 µM
[30] = second compound 0.0949 µM, first compound 0.01 µM
[31] = second compound 0.3 µM, first compound 0.00316 µM
[32] = second compound 0.3 µM, first compound 0.01 µM
[33] = second compound 0.949 µM, first compound 0.00316 µM
[34] = second compound 0.949 µM, first compound 0.01 µM
[35] = second compound 3 µM, first compound 0.00316 µM
[36] = second compound 3 µM, first compound 0.01 µM

CC1(C)CCC(CN2CCN(c3ccc(C(=O)NS(=O)(=O)c4ccc(NCC5CCOCC5)c([N+](=O)[O-])c4)c(Oc4cnc5[nH]ccc5c4)c3)CC2)=C(c2ccc(Cl)cc2)C1 + C=CC(=O)N1CCN(c2nc(OCC3CCCN3C)nc3c2CCN(c2cccc4cccc(C)c24)C3)CC1CC#N
inactive: viability, T/C [1] 105% | viability, T/C [2] 86.2% | viability, T/C [3] 96.9% | viability, T/C [4] 91.4% | viability, T/C (second compound 0.00949 µM, first compound 3.16 µM) 83.5% | viability, T/C [5] 99.3% | viability, T/C [6] 92% | viability, T/C [7] 111% | viability, T/C [8] 94.4% | viability, T/C (second compound 0.03 µM, first compound 3.16 µM) 76% | viability, T/C [9] 83.1% | viability, T/C [10] 103% | viability, T/C [11] 84.1% | viability, T/C [12] 94.6% | viability, T/C (second compound 0.0949 µM, first compound 3.16 µM) 75.1% | viability, T/C [13] 73.4% | viability, T/C [14] 75.9% | viability, T/C [15] 78.7% | viability, T/C [16] 96.8% | viability, T/C (second compound 0.3 µM, first compound 3.16 µM) 61.3% | viability, T/C [17] 67.6% | viability, T/C [18] 80.8% | viability, T/C [19] 72% | viability, T/C [20] 87.5% | viability, T/C (second compound 0.949 µM, first compound 3.16 µM) 55.3% | viability, T/C [21] 81% | viability, T/C [22] 86.1% | viability, T/C [23] 94.8% | viability, T/C [24] 71.2% | viability, T/C (second compound 3 µM, first compound 3.16 µM) 54.7%
5.29: pIC50 (second compound 0.00949 µM)
5.47: pIC50 (second compound 3 µM)
5.33: pIC50 (second compound 0.0949 µM)
5.32: pIC50 (second compound 0.03 µM)
5.41: pIC50 (second compound 0.3 µM)
5.45: pIC50 (second compound 0.949 µM)
active: viability, T/C (second compound 0.00949 µM, first compound 10 µM) 3.48% | viability, T/C (second compound 0.03 µM, first compound 10 µM) 3.1% | viability, T/C (second compound 0.0949 µM, first compound 10 µM) 1.65% | viability, T/C (second compound 0.3 µM, first compound 10 µM) 1.21% | viability, T/C (second compound 0.949 µM, first compound 10 µM) 3.31% | viability, T/C (second compound 3 µM, first compound 10 µM) 0.24%

CCN1CCN(Cc2ccc(Nc3ncc(F)c(-c4cc(F)c5nc(C)n(C(C)C)c5c4)n3)nc2)CC1 + C=CC(=O)N1CCN(c2nc(OCC3CCCN3C)nc3c2CCN(c2cccc4cccc(C)c24)C3)CC1CC#N
inactive: viability, T/C [25] 98.1% | viability, T/C [26] 94.3% | viability, T/C [1] 82.5% | viability, T/C [2] 83.7% | viability, T/C [3] 98.7% | viability, T/C [4] 149% | viability, T/C [27] 80.7% | viability, T/C [28] 75.4% | viability, T/C [5] 97.9% | viability, T/C [6] 84.2% | viability, T/C [7] 111% | viability, T/C [8] 142% | viability, T/C [29] 94.6% | viability, T/C [30] 82% | viability, T/C [9] 84.1% | viability, T/C [10] 98.7% | viability, T/C [11] 113% | viability, T/C [12] 146% | viability, T/C [31] 74.5% | viability, T/C [32] 89% | viability, T/C [13] 86.8% | viability, T/C [14] 81.3% | viability, T/C [15] 115% | viability, T/C [16] 126% | viability, T/C [33] 85.4% | viability, T/C [34] 64.5% | viability, T/C [17] 77.2% | viability, T/C [18] 79.2% | viability, T/C [19] 112% | viability, T/C [20] 161% | viability, T/C [35] 97.8% | viability, T/C [36] 85.2% | viability, T/C [21] 97.9% | viability, T/C [22] 109% | viability, T/C [23] 158% | viability, T/C [24] 106%
< 6.00: pIC50 (second compound 0.00949 µM) | pIC50 (second compound 0.03 µM) | pIC50 (second compound 0.0949 µM) | pIC50 (second compound 0.3 µM) | pIC50 (second compound 0.949 µM) | pIC50 (second compound 3 µM)

Cn1ncnc1[C@H]1c2n[nH]c(=O)c3cc(F)cc(c23)N[C@@H]1c1ccc(F)cc1 + C=CC(=O)N1CCN(c2nc(OCC3CCCN3C)nc3c2CCN(c2cccc4cccc(C)c24)C3)CC1CC#N
inactive: viability, T/C (second compound 0.00949 µM, first compound 0.000316 µM) 88% | viability, T/C (second compound 0.00949 µM, first compound 0.001 µM) 103% | viability, T/C [25] 85.6% | viability, T/C [26] 66.3% | viability, T/C [1] 84.8% | viability, T/C [2] 85.2% | viability, T/C (second compound 0.03 µM, first compound 0.000316 µM) 96.5% | viability, T/C (second compound 0.03 µM, first compound 0.001 µM) 75.2% | viability, T/C [27] 77.3% | viability, T/C [28] 77.9% | viability, T/C [5] 95.6% | viability, T/C [6] 86.4% | viability, T/C (second compound 0.0949 µM, first compound 0.000316 µM) 86.7% | viability, T/C (second compound 0.0949 µM, first compound 0.001 µM) 100% | viability, T/C [29] 75% | viability, T/C [30] 81.2% | viability, T/C [9] 82.6% | viability, T/C [10] 78.6% | viability, T/C (second compound 0.3 µM, first compound 0.000316 µM) 78.3% | viability, T/C (second compound 0.3 µM, first compound 0.001 µM) 90.9% | viability, T/C [31] 75.7% | viability, T/C [32] 71.9% | viability, T/C [13] 72.7% | viability, T/C [14] 86.2% | viability, T/C (second compound 0.949 µM, first compound 0.000316 µM) 61.8% | viability, T/C (second compound 0.949 µM, first compound 0.001 µM) 74.2% | viability, T/C [33] 78.8% | viability, T/C [34] 65.7% | viability, T/C [17] 74.9% | viability, T/C [18] 63.1% | viability, T/C (second compound 3 µM, first compound 0.000316 µM) 96.7% | viability, T/C (second compound 3 µM, first compound 0.001 µM) 80.2% | viability, T/C [35] 88.3% | viability, T/C [36] 88.5% | viability, T/C [21] 77.6% | viability, T/C [22] 83.9%
< 7.00: pIC50 (second compound 0.00949 µM) | pIC50 (second compound 0.03 µM) | pIC50 (second compound 0.0949 µM) | pIC50 (second compound 0.3 µM) | pIC50 (second compound 0.949 µM) | pIC50 (second compound 3 µM)
